According to paper PMC2972358 (Journal of molecular biology, 2010):
Read-outs that look alike come from different tables or passages of the source. One block for each substance: values may come before it. Bridges are numbered along the chain shown (N, C = ends). Where no end group is shown, it is not given here.

Tests used:
human MC1R [1] = biological target: T1, human MC1R (Homo sapiens, UniProt Q01726); assay: Eu-NDP-MSH displacement binding assay, MC1R
human MC4R = human MC4R (Homo sapiens, UniProt P32245); assay: Eu-NDP-MSH displacement binding assay, MC4R
human MC4R, sequence (P32245 whole entry): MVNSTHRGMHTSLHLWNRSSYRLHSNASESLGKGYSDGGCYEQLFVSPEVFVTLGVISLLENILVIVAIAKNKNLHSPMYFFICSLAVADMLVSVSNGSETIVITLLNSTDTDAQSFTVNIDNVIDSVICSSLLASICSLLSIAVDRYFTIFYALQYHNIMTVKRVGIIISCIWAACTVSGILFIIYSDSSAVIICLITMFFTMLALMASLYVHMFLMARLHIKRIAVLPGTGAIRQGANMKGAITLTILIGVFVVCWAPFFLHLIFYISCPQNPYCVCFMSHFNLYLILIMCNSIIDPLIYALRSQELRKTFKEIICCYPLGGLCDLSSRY

human MC1R [2] = biological target: T1, human MC1R; details: at high concentration, printed in the Ki column, cited from earlier work
[3] = biological target: human melanocortin receptor MC1R (Homo sapiens, UniProt Q01726); type: cell-based; details: absence of NDP-MSH; basal response taken as zero; HEK-293 cells with human MC1R
human melanocortin receptor MC1R, sequence (Q01726 whole entry): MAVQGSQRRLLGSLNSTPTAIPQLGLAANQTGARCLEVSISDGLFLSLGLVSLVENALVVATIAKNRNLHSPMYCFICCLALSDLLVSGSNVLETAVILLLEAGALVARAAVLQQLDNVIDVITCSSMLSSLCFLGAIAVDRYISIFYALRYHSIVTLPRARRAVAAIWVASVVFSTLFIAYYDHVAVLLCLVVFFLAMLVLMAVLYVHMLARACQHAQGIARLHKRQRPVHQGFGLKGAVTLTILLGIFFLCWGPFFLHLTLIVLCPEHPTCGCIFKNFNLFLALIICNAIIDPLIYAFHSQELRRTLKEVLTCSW

T1 sequence (Q01726 whole entry): as above

Ki (human MC1R [1]): 4.9 ± 1.1 nM | MC1R fold diff. (human MC1R [1]; fold difference of MC1R Ki relative to ASIP [chi(+1 +1 +1)]): 7.0 | Ki (human MC4R): 2.1 ± 0.3 nM | MC4R fold diff. (human MC4R; fold difference of MC4R Ki relative to ASIP [chi(+1 +1 +1)]): 1.6
Substance: Ac-KKVVRPRTPLSAPCVATRNSCKPPAPACCDPCASCYCRFFNAFCYCRVLSLNC-NH2 (disulfide 14-29, 21-35, 28-46, 32-53, 37-44) [chi(+1 −1 +1)]

Substance: CVRLHESCLGQQVPCCDPAATCYCRFFNAFCYCR (also: bicyclic or more (positions not given here)) [chi(−1 −1 0)]
MC1R suppression of NDP-MSH binding (partial displacement of agonist) (human MC1R [2]): 26%

Effect on cAMP production at MC1R (functional class) [3]: agonists
Substance: CVRLHESCLGQQVPCCDPAATCYCRFFRSACYCR (also: bicyclic or more (positions not given here)) [chi(−1 +1 0)]

Substance: CVRLHESCLGQQVPCCDPCATCYCRFFNAFCYCRKLGTAMNPCSRT (bicyclic or more) [AgRP [chi(−1 −1 −1)], reference compound]
MC1R suppression of NDP-MSH binding (partial displacement of agonist) (human MC1R [2]): 47% | MC1R suppression of NDP-MSH binding (partial displacement of agonist) (human MC1R [2]; listed as chi(−1 −1 −1)): 47%
